Test results: patent US12466803B2 (priority 2021, dated 2025)

Tested on: phospho (S293) BCKDHA in human skeletal myocytes
Assay: Phospho BCKDHA Alpha Surefire Cell Assay
Format: cell-based
Settings: Homo sapiens, 1 h, 60 minutes with compound, geometric mean

IC50 | SMILES
> 60 µM | CCCOc1ccc(-c2c(C(=O)O)sc3cc(F)ccc23)c(F)c1F [Example 39, 3-(2,3-difluoro-4-propoxyphenyl)-6-fluoro-1-benzothiophene-2-carboxylic acid]
> 54 µM | CC1COc2cc(-c3c(C(=O)O)sc4cc(F)ccc34)ccc2C1 (centres unmarked) [Example 40, 6-fluoro-3-(3-methyl-3,4-dihydro-2H-1-benzopyran-7-yl)-1-benzothiophene-2-carboxylic acid]
12 µM | O=C(O)c1sc2cc(F)ccc2c1-c1c(F)cccc1F [Example 48, 3-(2,6-difluorophenyl)-6-fluoro-1-benzothiophene-2-carboxylic acid]
7.5 µM | COc1c(C#N)ccc(-c2c(C(=O)O)sc3cc(F)ccc23)c1F [Example 49, 3-(4-cyano-2-fluoro-3-methoxyphenyl)-6-fluoro-1-benzothiophene-2-carboxylic acid]
12 µM | CCOc1c(Cl)ccc(-c2c(C(=O)O)sc3cc(F)ccc23)c1F [Example 51, 3-(4-chloro-3-ethoxy-2-fluorophenyl)-6-fluoro-1-benzothiophene-2-carboxylic acid]
0.064 µM | COc1c(Cl)cc(F)c(-c2c(C(=O)O)sc3cc(F)ccc23)c1F [Example 52, 3-(4-chloro-2,6-difluoro-3-methoxyphenyl)-6-fluoro-1-benzothiophene-2-carboxylic acid]
4.2 µM | COCc1c(F)c(F)cc(-c2c(C(=O)O)sc3cc(F)ccc23)c1F [Example 53, 6-fluoro-3-[2,4,5-trifluoro-3-(methoxymethyl)phenyl]-1-benzothiophene-2-carboxylic acid]
1.1 µM | COc1ccc(F)c(-c2c(C(=O)O)sc3cc(F)ccc23)c1F [Example 55, 3-(2,6-difluoro-3-methoxyphenyl)-6-fluoro-1-benzothiophene-2-carboxylic acid]
> 60 µM | O=C(O)c1sc2cc(F)ccc2c1-c1c(F)cc(Cl)cc1F [Example 59, 3-(4-chloro-2,6-difluorophenyl)-6-fluoro-1-benzothiophene-2-carboxylic acid]
2.9 µM | O=C(O)c1sc2cc(F)ccc2c1-c1c(F)cc(F)cc1F [Example 60, 6-fluoro-3-(2,4,6-trifluorophenyl)-1-benzothiophene-2-carboxylic acid]
2.1 µM | COc1ncc(F)c(-c2c(C(=O)O)sc3cc(F)ccc23)c1F [Example 61, 3-(3,5-difluoro-2-methoxypyridin-4-yl)-6-fluoro-1-benzothiophene-2-carboxylic acid]
0.071 µM | COc1c(F)cc(F)c(-c2c(C(=O)O)sc3cc(Cl)ccc23)c1F [Example 63, 6-chloro-3-(2,4,6-trifluoro-3-methoxyphenyl)-1-benzothiophene-2-carboxylic acid]
11 µM | O=C(O)c1sc2cc(F)ccc2c1-c1ccc(Cl)cc1F [Example 64, 3-(4-chloro-2-fluorophenyl)-6-fluoro-1-benzothiophene-2-carboxylic acid]
1.8 µM | O=C(O)c1sc2cc(F)ccc2c1-c1ccc(Cl)c(F)c1F [Example 65, 3-(4-chloro-2,3-difluorophenyl)-6-fluoro-1-benzothiophene-2-carboxylic acid]
3.8 µM | O=C(O)c1sc2cc(F)ccc2c1-c1ccc2c(c1F)OCCC2 [Example 66, 6-fluoro-3-(8-fluoro-3,4-dihydro-2H-1-benzopyran-7-yl)-1-benzothiophene-2-carboxylic acid]
5.1 µM | CC1CCc2cc(-c3c(C(=O)O)sc4cc(F)ccc34)c(F)cc2O1 (centres unmarked) [Example 67, 6-fluoro-3-(7-fluoro-2-methyl-3,4-dihydro-2H-1-benzopyran-6-yl)-1-benzothiophene-2-carboxylic acid]

IC50 | SMILES
4.5 µM | CC1CCc2cc(-c3c(C(=O)O)sc4cc(F)ccc34)cc(F)c2O1 (centres unmarked) [Example 71, 6-fluoro-3-(8-fluoro-2-methyl-3,4-dihydro-2H-1-benzopyran-6-yl)-1-benzothiophene-2-carboxylic acid]
> 60 µM | O=C(O)c1sc2cc(Cl)ccc2c1-c1ccccc1 [Example 74, 6-chloro-3-phenyl-1-benzothiophene-2-carboxylic acid]
> 60 µM | COc1c(C#N)cc(F)c(-c2c(C(=O)O)sc3cc(F)ccc23)c1F [Example 75, 3-(4-cyano-2,6-difluoro-3-methoxyphenyl)-6-fluoro-1-benzothiophene-2-carboxylic acid]
3.6 µM | CC1CCc2c(ccc(-c3c(C(=O)O)sc4cc(F)ccc34)c2F)O1 (centres unmarked) [Example 76, 6-fluoro-3-(5-fluoro-2-methyl-3,4-dihydro-2H-1-benzopyran-6-yl)-1-benzothiophene-2-carboxylic acid]
0.23 µM | COc1c(Cl)ccc(-c2c(C(=O)O)sc3cc(F)ccc23)c1F [Example 79, 3-(4-chloro-2-fluoro-3-methoxyphenyl)-6-fluoro-1-benzothiophene-2-carboxylic acid]
4 µM | CC1CCc2c(cc(F)c(-c3c(C(=O)O)sc4cc(Cl)ccc34)c2F)O1 (centres unmarked) [Example 80, 6-chloro-3-(5,7-difluoro-2-methyl-3,4-dihydro-2H-1-benzopyran-6-yl)-1-benzothiophene-2-carboxylic acid]
0.31 µM | CCc1c(F)ccc(-c2c(C(=O)O)sc3cc(F)ccc23)c1F [Example 86, 3-(3-ethyl-2,4-difluorophenyl)-6-fluoro-1-benzothiophene-2-carboxylic acid]
17 µM | CCOc1ccc(F)c(-c2c(C(=O)O)sc3cc(F)ccc23)c1F [Example 93, 3-(3-ethoxy-2,6-difluorophenyl)-6-fluoro-1-benzothiophene-2-carboxylic acid]
1 µM | Cc1cc(-c2c(C(=O)O)sc3cc(F)ccc23)c(F)cc1F [Example 95, 3-(2,4-difluoro-5-methylphenyl)-6-fluoro-1-benzothiophene-2-carboxylic acid]
0.54 µM | O=C(O)c1sc2cc(F)ccc2c1-c1c(F)ccc(Cl)c1F [Example 97, 3-(3-chloro-2,6-difluorophenyl)-6-fluoro-1-benzothiophene-2-carboxylic acid]
0.48 µM | Cc1cc(-c2c(C(=O)O)sc3cc(F)ccc23)c(F)cc1Cl [Example 106, 3-(4-chloro-2-fluoro-5-methylphenyl)-6-fluoro-1-benzothiophene-2-carboxylic acid]
8.6 µM | O=C(O)c1sc2cc(F)ccc2c1-c1c(F)cncc1F [Example 107, ammonium 3-(3,5-difluoropyridin-4-yl)-6-fluoro-1-benzothiophene-2-carboxylate]
0.62 µM | O=C(O)c1sc2cc(F)ccc2c1-c1cc(Cl)c(F)cc1F [Example 108, 3-(5-chloro-2,4-difluorophenyl)-6-fluoro-1-benzothiophene-2-carboxylic acid]
0.6 µM | O=C(O)c1sc2cc(F)ccc2c1-c1cc(F)c(F)c(F)c1F [Example 109, 6-fluoro-3-(2,3,4,5-tetrafluorophenyl)-1-benzothiophene-2-carboxylic acid]
0.55 µM | CCc1ncc(F)c(-c2c(C(=O)O)sc3cc(F)ccc23)c1F [Example 110, 3-(2-ethyl-3,5-difluoropyridin-4-yl)-6-fluoro-1-benzothiophene-2-carboxylic acid]
> 60 µM | O=C(O)c1sc2cc(F)ccc2c1-c1cc(F)cc(F)c1Cl [Example 111, ammonium 3-(2-chloro-3,5-difluorophenyl)-6-fluoro-1-benzothiophene-2-carboxylate]
